Where two headings read alike, the source gives them in different places.
How the values were obtained:
muscarinic receptors = assay: (-)3H-QNB binding to rat cerebral cortex homogenates with and without Cu++ treatment
M1 muscarinic receptor = target: T1, M1 muscarinic receptor (Rattus norvegicus, UniProt P08482); assay: Displacement of 3H-QNB from rat cerebral cortex, 50 mM phosphate buffer; format: binding
T1 sequence (P08482 1-460): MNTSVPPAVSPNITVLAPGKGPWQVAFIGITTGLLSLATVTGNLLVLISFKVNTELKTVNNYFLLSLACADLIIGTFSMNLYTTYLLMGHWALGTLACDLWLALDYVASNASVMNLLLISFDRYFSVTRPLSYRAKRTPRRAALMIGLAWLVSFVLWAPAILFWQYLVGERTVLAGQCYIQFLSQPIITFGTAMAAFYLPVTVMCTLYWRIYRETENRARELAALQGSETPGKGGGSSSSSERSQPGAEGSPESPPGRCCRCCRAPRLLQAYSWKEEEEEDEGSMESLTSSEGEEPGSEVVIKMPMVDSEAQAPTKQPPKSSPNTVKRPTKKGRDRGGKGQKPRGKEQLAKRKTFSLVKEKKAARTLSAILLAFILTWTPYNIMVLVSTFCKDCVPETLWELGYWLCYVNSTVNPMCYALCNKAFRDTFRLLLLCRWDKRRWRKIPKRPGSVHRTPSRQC

AF64A-treated rats [1] = assay: 8-arm radial maze (RAM) with delay procedure in AF64A-treated rats, Part B; format: in vivo
Experimental: This animal model mimics the cholinergic hypofunction and cognitive dysfunction in SDAT (Fisher and Hanin, loc cit; Fisher et al, Neurosci. Lett. 102: 325-331, 1989); the method described in the latter publication was used here.
In brief, saline- and A64A-pretreated rats (3 nmole/2 µl./side, icv) were used in these experiments, 2.5 months after the lesion. The experiment was carried out over a three-week period. During the first week the rats were trained to find food pellets in all eight arms of the maze. After learning the task, the rats were trained using the delay procedure. During a predelay session, four of the arms of the maze were closed and the rats collected the food pellets from the remaining four opened arms. During this period working memory errors were recorded. Following a two hour delay, the rats were returned to the maze. All of the arms of the maze were now open but only four of them, those which were closed during the pre-delay session, were baited. The rats had to collect the food pellets without entering any previously visited arms, whether during the predelay or the post-delay session. After reaching a baseline level the rats were tested for their performance during the third week of the experiment in which either 10mM phosphate buffer (pH 7.3), or AF150 (0.07 or 1.0 mg./kg. free base dissolved in 10 mM phosphate buffer, pH 7.3), were administered i.p., immediately after the pre-delay session, once a day for five days.

AF64A-treated rats [2] = assay: Passive avoidance (PA) in AF64A-treated rats; format: in vivo; details: for Retention latency after 72 hours: i.p.
Description: This animal model mimics to a certain extent the cholinergic hypofunction in SDAT (Fisher and Hanin, Ann. Rev. Pharmacol. Toxicol. 26: 161-181, 1986). The method described in Fisher et al (J. Pharmacol. Exptl. Therap., 1991, in the press) and in Fisher et al (Neurosci. Lett. 102: 325-331, 1989) was used here.
No significant differences were found among the different groups of animals tested in the initial latency test; the initial latency ranged from 20 and 31 seconds. In all the experiments using AF150, the compound as free base was dissolved in 10 mM phosphate buffer having pH 7.35.

scopolamine-treated rats = assay: Passive avoidance (PA) in scopolamine-treated rats; format: in vivo, Sprague-Dawley rats
Experimental: Naive male Sprague-Dawley rats, three months old (obtained from Charles River Breeding, U.K.), were used (weighing 200-300 g.). The passive avoidance (PA) test is according to Fisher et al, Neurosci. Lett. 102: 325 (1989), except that in these rats amnesia was induced by scopolamine.
Eight groups of 17-20 naive rats were used. Each group was divided into two subgroups of 7-10 rats each: subgroup 1 was injected with scopolamine HBr (0.5 mg./kg. in saline, s.c., 15 min. before the shock) and subgroup 2 was injected with saline (1 ml./kg., s.c., 15 min. before the shock). Seven of the groups were treated within one minute after the shock with one of the following doses of the tested compound: 0.1, 0.5, 1, 3, 5, 8, 10 mg./kg. (in saline, i.p.) and one group received saline (1 ml./kg., i.p.).
Eight groups of 18-20 naive rats each were used. Each group was divided into two subgroups of 9-10 rats each: subgroup 1 was injected with scopolamine HBr (0.5 mg./kg. in saline, s.c., 15 min. before the shock) and subgroup 2 was injected with saline (1 ml./kg., s.c., 15 min. before the shock). Seven of the groups were treated, within one minute after the shock, with one of the following doses of AF125(N): 0.1, 0.5, 1, 3, 5, 8 or 10 mg./kg. (in saline, i.p.) and one group received saline (1 ml./kg., i.p.).

[3] = post-shock AF125 0.1 mg/kg i.p., pre-shock Saline
[4] = post-shock AF125 0.1 mg/kg i.p., pre-shock Scopolamine
[5] = post-shock AF125 0.5 mg/kg i.p., pre-shock Saline
[6] = post-shock AF125 0.5 mg/kg i.p., pre-shock Scopolamine
[7] = post-shock AF125 1.0 mg/kg i.p., pre-shock Saline
[8] = post-shock AF125 1.0 mg/kg i.p., pre-shock Scopolamine
[9] = post-shock AF125 3.0 mg/kg i.p., pre-shock Saline
[10] = post-shock AF125 3.0 mg/kg i.p., pre-shock Scopolamine
[11] = post-shock AF125 5.0 mg/kg i.p., pre-shock Saline
[12] = post-shock AF125 5.0 mg/kg i.p., pre-shock Scopolamine
[13] = post-shock AF125 8.0 mg/kg i.p., pre-shock Saline
[14] = post-shock AF125 8.0 mg/kg i.p., pre-shock Scopolamine
[15] = post-shock AF125 10.0 mg/kg i.p., pre-shock Saline
[16] = post-shock AF125 10.0 mg/kg i.p., pre-shock Scopolamine

## CC1=NCC2(CCN(C)CC2)O1 [AF150, 2-Methyl-spiro(1,3-oxazoline-5,4')-1'-methylpiperidine]
Muscarinic receptors; with Cu++ pretreatment (100 µM, 30 minutes)
  %H (% of high affinity state): 37%
Muscarinic receptors; with Cu++ pretreatment (100 µM, 30 minutes), listed as 5
  %H (% of high affinity state): 37±2%
Muscarinic receptors; with Cu++ pretreatment (100 µM, 30 minutes), read-out: KH
  Ki: 0.52 ± 0.003 µM
Muscarinic receptors; with Cu++ pretreatment (100 µM, 30 minutes), read-out: KL
  Ki: 18 ± 2 µM
Muscarinic receptors; without pretreatment
  %H (% of high affinity state): 14%
Muscarinic receptors; without pretreatment, listed as 5
  %H (% of high affinity state): 14±1%
Muscarinic receptors; without pretreatment, read-out: KH
  Ki: 0.32 µM
Muscarinic receptors; without pretreatment, read-out: KL
  Ki: 33.5 µM
M1 muscarinic receptor; KH2 cerebellum : KH1 cortex (3H-QNB)
  RATIOS c:a: 3.5
M1 muscarinic receptor; KL1 : KH1 cortex (3H-QNB)
  RATIOS b:a: 49
M1 muscarinic receptor; KL2 cerebellum : KL1 cortex (3H-QNB)
  RATIOS d:b: 17
M1 muscarinic receptor; cortex, Table 5
  % H1: 13%
  % L1: 87%
AF64A-treated rats [1]; AF150 0.07 mg./kg., i.p. group, AF64A rats, week (pre)II, before treatment
  Working memory errors (session I): 3.33±1.18
AF64A-treated rats [1]; AF150 0.07 mg./kg., i.p. group, Sal. rats, week (pre)II, before treatment
  Working memory errors (session I): 0.33±0.12
AF64A-treated rats [1]; AF150 0.07 mg./kg., i.p., AF64A rats, week III
  Working memory errors (session I): 3.75±1.04
AF64A-treated rats [1]; AF150 0.07 mg./kg., i.p., Sal. rats, week III
  Working memory errors (session I): 0.18±0.07
AF64A-treated rats [1]; AF150 1.0 mg./kg., i.p. group, AF64A rats, week (pre)II, before treatment
  Working memory errors (session I): 3.00±0.94
AF64A-treated rats [1]; AF150 1.0 mg./kg., i.p. group, Sal. rats, week (pre)II, before treatment
  Working memory errors (session I): 0.11±0.05
AF64A-treated rats [1]; AF150 1.0 mg./kg., i.p., AF64A rats, week III
  Working memory errors (session I): 4.22±1.76
AF64A-treated rats [1]; AF150 1.0 mg./kg., i.p., Sal. rats, week III
  Working memory errors (session I): 0.13±0.07
AF64A-treated rats [2]; AF150 0.1 mg./kg., rats treated with AF64A (3 nmole/2µl./side, icv)
  Retention latency after 72 hours: 449.5 ± 52.1 s
AF64A-treated rats [2]; AF150 0.1 mg./kg., rats treated with saline
  Retention latency after 72 hours: 511.8 ± 45.7 s
AF64A-treated rats [2]; AF150 0.2 mg./kg., rats treated with AF64A
  Retention latency after 72 hours: 481.1 ± 54.3 s
AF64A-treated rats [2]; AF150 0.2 mg./kg., rats treated with saline
  Retention latency after 72 hours: 479.1 ± 57.2 s
AF64A-treated rats [2]; AF150 1.0 mg./kg., rats treated with AF64A
  Retention latency after 72 hours: 600.0 ± 0 s
AF64A-treated rats [2]; AF150 1.0 mg./kg., rats treated with saline
  Retention latency after 72 hours: 571.6 ± 28.4 s
AF64A-treated rats [2]; administered orally at 0.2 and 1.0 mg./kg., free base, AF64A-treated rats (not shown)
  retention latency: improved significantly

## CC1=NCC2(CN3CCC2CC3)O1 (racemic) [AF125, 2-Methyl-spiro(1,3 oxazoline-5,3')quinuclidine]
scopolamine-treated rats; 3 mg./kg. i.p., pre-shock saline treated rats
  side effects: slight diarrhea
scopolamine-treated rats; 5 mg./kg. i.p., pre-shock saline treated rats
  side effects: stronger diarrhea
scopolamine-treated rats; 8 and 10 mg./kg. i.p., pre-shock saline treated rats
  side effects: severe diarrhea with lacrimation
scopolamine-treated rats; [3]
  Initial latency, Mean: 49.5
  Retention latency, Mean: 572.8
scopolamine-treated rats; [4]
  Initial latency, Mean: 33.6
  Retention latency, Mean: 128.8
scopolamine-treated rats; [5]
  Initial latency, Mean: 42.0
  Retention latency, Mean: 600.0
scopolamine-treated rats; [6]
  Initial latency, Mean: 47.4
  Retention latency, Mean: 222.7
scopolamine-treated rats; [7]
  Initial latency, Mean: 36.0
  Retention latency, Mean: 555.8
scopolamine-treated rats; [8]
  Initial latency, Mean: 23.3
  Retention latency, Mean: 261.2
scopolamine-treated rats; [9]
  Initial latency, Mean: 51.9
  Retention latency, Mean: 530.4
scopolamine-treated rats; [10]
  Initial latency, Mean: 47.3
  Retention latency, Mean: 296.0
scopolamine-treated rats; [11]
  Initial latency, Mean: 34.7
  Retention latency, Mean: 426.7
scopolamine-treated rats; [12]
  Initial latency, Mean: 51.3
  Retention latency, Mean: 227.3
scopolamine-treated rats; [13]
  Initial latency, Mean: 41.2
  Retention latency, Mean: 594.1
scopolamine-treated rats; [14]
  Initial latency, Mean: 53.9
  Retention latency, Mean: 294.9
scopolamine-treated rats; [15]
  Initial latency, Mean: 46.3
  Retention latency, Mean: 498.3
scopolamine-treated rats; [16]
  Initial latency, Mean: 45.9
  Retention latency, Mean: 288.3
scopolamine-treated rats; pre-shock scopolamine treated rats
  side effects: did not exhibit any side effects
